Assay [1] concerns the target T1, ERK2 (Homo sapiens, UniProt P28482).
T1 construct: purchased R&D 1879-KS-010
Description: ERK2 enzyme activity test (ADP-Glo Kinase Assay). The assay is classed as biochemical. Particulars: read-out: IC50 value of the inhibition on ERK2 enzyme activity. Here is the method:
(§1) The purpose of this experiment is to detect the inhibitory ability of the compounds on the ERK2 enzyme activity, and evaluate the in vitro activity of the compounds based on the IC50. The ADP-Glo™ Kinase Assay Kit is used in this experiment. Under the action of the enzyme, the substrate is phosphorylated and ADP is produced at the same time. The ADP-Glo reagent is added to remove the unreacted ATP in the reaction system, and the ADP produced by the reaction is detected by the kinase detection reagent. In the presence of the compound, the inhibition rate of the compound is calculated by measuring the signal value.
(§2) ATP was diluted to 500 μM with the buffer. The compound was dissolved in DMSO to prepare a stock solution with an initial concentration of 20 mM, and then Bravo (SGC120TH34702, Agilent Technologies) was used to dilute the stock solution to desired concentrations. Finally, a 3 μL of a mixed solution of enzyme and substrate, and 1 μL of different concentrations of the compound (the initial concentration is 50 μM, 4-fold dilution) were added to each well of the 384-well plate, and the plate was incubated at 30° C. for 10 minutes, and finally 1 μL of 500 μM ATP solution was added to each well, and the plate was incubated at 30° C. for 2 hours. Then 5 μL of ADP-Glo was added, and the plate was incubated at 30° C. for 40 minutes. Then 10 μL of kinase detection buffer was added, and the plate was incubated at 30° C. for 40 minutes. The 384-well plate was taken out and placed in a microplate reader (BMG labtech, PHERAstar FS), and the chemiluminescence was measured by the microplate reader.
(§3) Microsoft Excel, Graphpad Prism 5 was used to process and analyze the data.

Assay [2] deals with Colo205 cells. Description: In vitro proliferation inhibition test on Colo205 tumor cells (CellTiter-Glo). Format: cell-based. Particulars: Homo sapiens, COLO 205, 72 h; 3 days of culture, CTG; read-out: IC50 value of the inhibition on in vitro Colo205 tumor cell proliferation. Here is the method:
The purpose of this experiment is to test the inhibitory activity of the compounds on the proliferation of Colo205 cells (CCL-222, ATCC) in vitro. The cells were treated in vitro with different concentrations of the compounds. After 3 days of culture, the cell proliferation was tested with CTG (CellTiter-Glo® Luminescent Cell Viability Assay, Promega, Catalog No. G7573) reagent, and the in vitro activity of the compounds was evaluated according to the IC50 value.
In the following, taking the in vitro proliferation inhibition test method of Colo205 cells as an example, the method in the present disclosure for testing the in vitro proliferation inhibitory activity of the compounds of the present disclosure is described. This method is also applicable to, but not limited to, the in vitro proliferation inhibitory activity test on other tumor cells.
Colo205 cells were digested, centrifuged and then resuspended. The single cell suspension was mixed well, and the density of viable cells was adjusted to 5.0×10^4 cells/ml with cell culture medium (RPMI1640+2% FBS), and 95 μl/well was added to a 96-well cell culture plate. Only 100 μl medium was added to the peripheral wells of the 96-well plate. The culture plate was incubated in an incubator for 24 hours (37° C., 5% CO2).
The compound was dissolved in DMSO and prepared into a stock solution with an initial concentration of 20 mM. The initial concentration of the small molecule compound was 2 mM, and then 4-fold diluted into 9 points, and the 10th point is DMSO. Another 96-well plate was taken and 90 μl of cell culture medium (RPMI1640+2% FBS) was added to each well, then 10 μl of different concentrations of the test sample was added to each well. The mixture was mixed well, and then 5 μL of different concentrations of the test sample was added to the cell culture plate with duplicate well for each sample. The culture plate was incubated in an incubator for 3 days (37° C., 5% CO2). The 96-well cell culture plate was taken out, 50 μL CTG solution was added to each well, and the plate was incubated for 10 minutes at room temperature. In a microplate reader (BMG labtech, PHERAstar FS), chemiluminescence was measured with the microplate reader.
as §3
For orientation: Cellular ATP, detected with luciferase, serves as a proxy for viable cell number.

Assay [3] deals with T2, ERK1 (Homo sapiens, UniProt P27361).
T2 construct: purchased R&D 1879-KS-010
Description: ERK1 enzyme activity test (ADP-Glo Kinase Assay). Format: biochemical. Particulars: read-out: IC50 value of the inhibition on ERK1 enzyme activity. Here is the method:
as §1, with “the ERK1” for “the ERK2”, “detected with” for “detected by”
as §2, with “diluted to 300 μM with” for “diluted to 500 μM with”, “Finally, a […] of” for “Finally, a 3 μL of”, “and 1 μL, of different” for “and 1 μL of different”, “μL of 300 μM ATP” for “μL of 500 μM ATP”, “μL of Kinase detection buffer” for “μL of kinase detection buffer”
as §3
A general note: ADP-Glo first removes unused ATP, then detects ADP through luciferase.

Results on 15 compounds are retold here after US20220185818A1, “PYRROLOHETEROCYCLIC DERIVATIVE, PREPARATION METHOD THEREFOR, AND APPLICATION THEREOF IN MEDICINE” (Jiangsu Hengrui Medicine Co., Ltd., priority 2019, published 2022).

T1 sequence (P28482 2-360 limits assumed): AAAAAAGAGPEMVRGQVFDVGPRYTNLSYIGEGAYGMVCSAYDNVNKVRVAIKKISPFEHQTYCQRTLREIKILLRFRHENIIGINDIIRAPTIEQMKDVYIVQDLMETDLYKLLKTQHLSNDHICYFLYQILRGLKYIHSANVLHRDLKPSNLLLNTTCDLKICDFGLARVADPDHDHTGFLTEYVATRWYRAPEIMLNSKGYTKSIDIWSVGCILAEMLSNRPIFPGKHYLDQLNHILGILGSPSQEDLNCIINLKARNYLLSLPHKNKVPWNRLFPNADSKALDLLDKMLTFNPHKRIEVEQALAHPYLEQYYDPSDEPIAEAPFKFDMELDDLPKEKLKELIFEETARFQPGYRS
T2 sequence (P27361 whole entry): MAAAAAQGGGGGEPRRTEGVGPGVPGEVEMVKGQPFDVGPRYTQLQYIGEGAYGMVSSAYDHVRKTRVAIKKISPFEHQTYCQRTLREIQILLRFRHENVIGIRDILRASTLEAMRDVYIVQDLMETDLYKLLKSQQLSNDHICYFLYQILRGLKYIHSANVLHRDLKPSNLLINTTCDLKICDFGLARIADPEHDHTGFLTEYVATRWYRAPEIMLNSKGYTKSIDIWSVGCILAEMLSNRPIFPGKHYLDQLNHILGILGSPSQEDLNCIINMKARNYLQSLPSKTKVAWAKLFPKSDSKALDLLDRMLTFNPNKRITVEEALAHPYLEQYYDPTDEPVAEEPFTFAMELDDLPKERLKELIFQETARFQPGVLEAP

In the case of `Cc1cnc(Nc2ccnn2C)nc1-c1cc2n(c1)C(=O)N([C@H](CO)c1ccc(Cl)c(F)c1)C2` [Example 14, (S)-2-(1-(4-Chloro-3-fluorophenyl)-2-hydroxyethyl)-6-(5-methyl-2-((1-methyl-1H-pyrazol-5-yl)amino)pyrimidin-4-yl)-1H-pyrrolo[1,2-c]imidazol-3(2H)-one], the IC50 in assay [1] was 0.005 µM; in assay [2] it was 0.092 µM.

Regarding `Cc1cnc(Nc2ccnn2C)nc1-c1cc2n(c1)C(=O)N(Cc1ccc(F)c(F)c1)C2` [Example 18, 2-(3,4-Difluorobenzyl)-6-(5-methyl-2-((1-methyl-1H-pyrazol-5-yl)amino)pyrimidin-4-yl)-1H-pyrrolo[1,2-c]imidazol-3(2H)-one], the IC50 in assay [1] was found to be 0.016 µM.

`Cc1cnc(Nc2ccnn2C)nc1-c1cc2n(c1)C(=O)N([C@H](CN)c1cccc(Cl)c1)C2` [Example 11, (S)-2-(2-Amino-1-(3-chlorophenyl)ethyl)-6-(5-methyl-2-((1-methyl-1H-pyrazol-5-yl)amino)pyrimidin-4-yl)-1H-pyrrolo[1,2-c]imidazol-3(2H)-one]: in assay [1], the IC50 was determined as 0.018 µM.

`Cc1cnc(Nc2ccnn2C)nc1-c1cc2n(c1)C(=O)N([C@H](CO)c1ccc(F)c(Cl)c1)C2` [Example 6, (S)-2-(1-(3-Chloro-4-fluorophenyl)-2-hydroxyethyl)-6-(5-methyl-2-((1-methyl-1H-pyrazol-5-yl)amino)pyrimidin-4-yl)-1H-pyrrolo[1,2-c]imidazol-3(2H)-one]: the results for the IC50 in assay [3], in assay [1] and in assay [2] were 0.014 µM, 0.01 µM and 0.074 µM, respectively.

As to `O=C1N([C@H](CO)c2cccc(Cl)c2)Cc2cc(-c3nc(NC4CC(O)C(F)C4)ncc3Cl)cn21` (stereo partly drawn) [Example 7, 6-(5-Chloro-2-((3-fluoro-4-hydroxycyclopentyl)amino)pyrimidin-4-yl)-2-((S)-1-(3-chlorophenyl)-2-hydroxyethyl)-1H-pyrrolo[1,2-c]imidazol-3(2H)-one], the results for the IC50 in assay [1] and in assay [2] were 0.063 µM and 0.158 µM, respectively.

In the case of `Cc1cnc(Nc2ccnn2C)nc1-c1cc2n(c1)C(=O)N([C@H](CO)c1cccc(Cl)c1)CC2` [Example 9, (S)-2-(1-(3-Chlorophenyl)-2-hydroxyethyl)-6-(5-methyl-2-((1-methyl-1H-pyrazol-5-yl)amino)pyrimidin-4-yl)-3,4-dihydropyrrolo[1,2-c]pyrimidin-1(2H)-one], the IC50 in assay [3] came out at 0.012 µM; in assay [2] it was 0.077 µM.

Regarding `Cn1nccc1Nc1ncc(Cl)c(-c2cc3n(c2)C(=O)N([C@H](CO)c2cccc(Cl)c2)C3)n1` [Example 2, (S)-6-(5-Chloro-2-((1-methyl-1H-pyrazol-5-yl)amino)pyrimidin-4-yl)-2-(1-(3-chlorophenyl)-2-hydroxyethyl)-1H-pyrrolo[1,2-c]imidazol-3(2H)-one], the IC50 in assay [1] is 0.003 µM; in assay [2] it was 0.032 µM.

`Cc1cnc(Nc2ccnn2C)nc1-c1cc2n(c1)C(=O)N([C@H](C)c1cccc(Cl)c1)C2` [Example 12, (R)-2-(1-(3-Chlorophenyl)ethyl)-6-(5-methyl-2-((1-methyl-1H-pyrazol-5-yl)amino)pyrimidin-4-yl)-1H-pyrrolo[1,2-c]imidazol-3(2H)-one]: the IC50 in assay [1] is 0.045 µM.

As for `O=C1N([C@H](CO)c2cccc(Cl)c2)Cc2cc(-c3nc(NC4CCOCC4)ncc3Cl)cn21` [Example 4, (S)-6-(5-Chloro-2-((tetrahydro-2H-pyran-4-yl)amino)pyrimidin-4-yl)-2-(1-(3-chlorophenyl)-2-hydroxyethyl)-1H-pyrrolo[1,2-c]imidazol-3(2H)-one], the values for the IC50 in assay [1] and in assay [2] were 0.006 µM and 0.082 µM, respectively.

For `C[C@@H](CO)Nc1ncc(Cl)c(-c2cc3n(c2)C(=O)N([C@H](CO)c2cccc(Cl)c2)C3)n1` [Example 5, 6-(5-Chloro-2-(((S)-1-hydroxypropan-2-yl)amino)pyrimidin-4-yl)-2-((S)-1-(3-chlorophenyl)-2-hydroxyethyl)-1H-pyrrolo[1,2-c]imidazol-3(2H)-one], the IC50 in assay [3] stood at 0.01 µM; in assay [2] it was 0.081 µM.

Turning to `Cn1nccc1Nc1nccc(-c2cc3n(c2)C(=O)N([C@H](CO)c2ccc(Cl)cc2)C3)n1` [Example 21, (S)-2-(1-(4-Chlorophenyl)-2-hydroxyethyl)-6-(2-((1-methyl-1H-pyrazol-5-yl)amino)pyrimidin-4-yl)-1H-pyrrolo[1,2-c]imidazol-3(2H)-one], the IC50 was 0.067 µM in assay [3], 0.045 µM in assay [1] and 0.12 µM in assay [2].

As for `COc1cc(F)cc([C@@H](CO)N2Cc3cc(-c4nc(Nc5ccnn5C)ncc4C)cn3C2=O)c1` [Example 1, (S)-2-(1-(3-Fluoro-5-methoxyphenyl)-2-hydroxyethyl)-6-(5-methyl-2-((1-methyl-1H-pyrazol-5-yl)amino)pyrimidin-4-yl)-1H-pyrrolo[1,2-c]imidazol-3(2H)-one], the results for the IC50 in assay [3], in assay [1] and in assay [2] were 0.009 µM, 0.002 µM and 0.09 µM, respectively.

On to `Cn1nccc1Nc1nccc(-c2cc3n(c2)C(=O)N([C@H](CO)c2cccc(F)c2)C3)n1` [Example 19, (S)-2-(1-(3-Fluorophenyl)-2-hydroxyethyl)-6-(2-((1-methyl-1H-pyrazol-5-yl)amino)pyrimidin-4-yl)-1H-pyrrolo[1,2-c]imidazol-3(2H)-one], for which the values for the IC50 in assay [3], in assay [1] and in assay [2] were 0.024 µM, 0.02 µM and 0.101 µM, respectively.

On to `Cn1nccc1Nc1nccc(-c2cc3n(c2)C(=O)N([C@H](CO)c2ccc(F)c(Cl)c2)C3)n1` [Example 16, (S)-2-(1-(3-Chloro-4-fluorophenyl)-2-hydroxyethyl)-6-(2-((1-methyl-1H-pyrazol-5-yl)amino)pyrimidin-4-yl)-1H-pyrrolo[1,2-c]imidazol-3(2H)-one], for which the IC50 in assay [3] was found to be 0.07 µM; in assay [1] it was 0.044 µM; in assay [2], 0.18 µM.

For the compound `CNC[C@H](c1cccc(Cl)c1)N1Cc2cc(-c3nc(Nc4ccnn4C)ncc3C)cn2C1=O` [Example 13, (S)-2-(1-(3-Chlorophenyl)-2-(methylamino)ethyl)-6-(5-methyl-2-((1-methyl-1H-pyrazol-5-yl)amino)pyrimidin-4-yl)-1H-pyrrolo[1,2-c]imidazol-3(2H)-one], the IC50 turned out to be 0.002 µM in assay [3], 0.002 µM in assay [1] and 0.099 µM in assay [2].
